According to ChEMBL document CHEMBL1833895, “Synthesis and biological activity of desmethoxy analogues of coruscanone A” (Bioorg Med Chem Lett, 2011):

Assays:
[1] = test system: Trichophyton mentagrophytes; assay: Antifungal activity against Trichophyton mentagrophytes 445 after 120 hrs by microdilution method; format: functional, organism-based; settings: Trichophyton mentagrophytes, 445, 120 h
Aspergillus fumigatus [2] = assay: Antifungal activity against Aspergillus fumigatus 231 after 48 hrs by microdilution method; format: functional, organism-based; settings: Aspergillus fumigatus, 231, 48 h
Candida albicans [3] = assay: Antifungal activity against Candida albicans ATCC 44859 after 48 hrs by microdilution method; format: functional; settings: ATCC 44859, 48 h
Candida albicans [4] = assay: Antifungal activity against Candida albicans ATCC 90028 after 48 hrs by microdilution method; format: functional; settings: ATCC 90028, 48 h
Lichtheimia corymbifera [5] = assay: Antifungal activity against Absidia corymbifera 272 after 24 hrs by microdilution method; format: functional, organism-based; settings: Lichtheimia corymbifera, 272, 24 h
Lichtheimia corymbifera [6] = assay: Antifungal activity against Absidia corymbifera 272 after 48 hrs by microdilution method; format: functional, organism-based; settings: Lichtheimia corymbifera, 272, 48 h
Clavispora lusitaniae [7] = assay: Antifungal activity against Candida lusitaniae 2446/I after 48 hrs by microdilution method; format: functional
Candida parapsilosis [8] = assay: Antifungal activity against Candida parapsilosis ATCC 22019 after 24 hrs by microdilution method; format: functional; settings: Lodderomyces parapsilosis, ATCC 22019, 24 h
[9] = Cytostatic activity against human COLO201 cells at 10 umol/L after 72 hrs by XTT assay; format: ADME, cell-based; settings: colo 201, 72 h, 10 µM
Pichia kudriavzevii [10] = assay: Antifungal activity against Candida krusei E28 after 24 hrs by microdilution method; format: functional; settings: E28, 24 h
HT-29 = assay: Cytostatic activity against human HT-29 cells at 10 umol/L after 72 hrs by XTT assay; format: ADME, cell-based; settings: ht-29, 72 h, 10 µM
Pichia kudriavzevii [11] = assay: Antifungal activity against Candida krusei ATCC 6258 after 48 hrs by microdilution method; format: functional; settings: ATCC 6258, 48 h
Pichia kudriavzevii [12] = assay: Antifungal activity against Candida krusei E28 after 48 hrs by microdilution method; format: functional; settings: E28, 48 h
Aspergillus fumigatus [13] = assay: Antifungal activity against Aspergillus fumigatus 231 after 24 hrs by microdilution method; format: functional, organism-based; settings: Aspergillus fumigatus, 231, 24 h
Candida tropicalis [14] = assay: Antifungal activity against Candida tropicalis 156 after 48 hrs by microdilution method; format: functional; settings: Candida tropicalis, 156, 48 h
Clavispora lusitaniae [15] = assay: Antifungal activity against Candida lusitaniae 2446/I after 24 hrs by microdilution method; format: functional
Pichia kudriavzevii [16] = assay: Antifungal activity against Candida krusei ATCC 6258 after 24 hrs by microdilution method; format: functional; settings: ATCC 6258, 24 h
HL-60 = assay: Cytostatic activity against human HL60 cells at 10 umol/L after 72 hrs by XTT assay; format: ADME, cell-based; settings: hl-60, 72 h, 10 µM
[17] = Cytostatic activity against human HeLaS3 cells at 10 umol/L after 48 hrs by XTT assay; format: ADME, cell-based; settings: hela s3, 48 h, 10 µM
Nakaseomyces glabratus [18] = assay: Antifungal activity against Candida glabrata 20/I after 48 hrs by microdilution method; format: functional
Nakaseomyces glabratus [19] = assay: Antifungal activity against Candida glabrata 20/I after 24 hrs by microdilution method; format: functional
Trichosporon asahii [20] = assay: Antifungal activity against Trichosporon asahii 1188 after 48 hrs by microdilution method; format: functional; settings: Trichosporon asahii, 1188, 48 h
Trichosporon asahii [21] = assay: Antifungal activity against Trichosporon asahii 1188 after 24 hrs by microdilution method; format: functional; settings: Trichosporon asahii, 1188, 24 h
[22] = test system: Trichophyton mentagrophytes; assay: Antifungal activity against Trichophyton mentagrophytes 445 after 72 hrs by microdilution method; format: functional, organism-based; settings: Trichophyton mentagrophytes, 445, 72 h
Candida albicans [23] = assay: Antifungal activity against Candida albicans ATCC 90028 after 24 hrs by microdilution method; format: functional; settings: ATCC 90028, 24 h
Candida parapsilosis [24] = assay: Antifungal activity against Candida parapsilosis ATCC 22019 after 48 hrs by microdilution method; format: functional; settings: Lodderomyces parapsilosis, ATCC 22019, 48 h
Candida tropicalis [25] = assay: Antifungal activity against Candida tropicalis 156 after 24 hrs by microdilution method; format: functional; settings: Candida tropicalis, 156, 24 h
L1210 = assay: Cytostatic activity against mouse L1210 cells at 10 umol/L after 72 hrs by XTT assay; format: ADME, cell-based; settings: l1210, 72 h, 10 µM
Candida albicans [26] = assay: Antifungal activity against Candida albicans ATCC 44859 after 24 hrs by microdilution method; format: functional; settings: ATCC 44859, 24 h
CCRF-CEM [27] = assay: Cytostatic activity against human CCRF-CEM cells at 10 umol/L after 72 hrs by XTT assay; format: ADME, cell-based; settings: 10 µM
CCRF-CEM [28] = assay: Cytostatic activity against human CCRF-CEM cells after 72 hrs by XTT assay; format: ADME, cell-based
[29] = Cytostatic activity against human HeLaS3 cells after 48 hrs by XTT assay; format: ADME, cell-based; settings: HeLa S3, 48 h

SMILES	IC50 [1]	IC80 (Aspergillus fumigatus [2])	IC80 (Candida albicans [3])	IC80 (Candida albicans [4])	IC80 (Lichtheimia corymbifera [5])	IC80 (Lichtheimia corymbifera [6])	IC80 (Clavispora lusitaniae [7])	IC80 (Candida parapsilosis [8])	Activity [9]	IC80 (Pichia kudriavzevii [10])	Activity (HT-29)	IC80 (Pichia kudriavzevii [11])	IC80 (Pichia kudriavzevii [12])	IC80 (Aspergillus fumigatus [13])	IC80 (Candida tropicalis [14])	IC80 (Clavispora lusitaniae [15])	IC80 (Pichia kudriavzevii [16])	Activity (HL-60)	IC80 (Nakaseomyces glabratus [18])	IC80 (Nakaseomyces glabratus [19])	other results
COc1ccc(/C=C/C=C2C(=O)C=CC2=O)cc1	500 µM	250 µM	250 µM	250 µM	> 500 µM	> 500 µM	250 µM	250 µM	Non-toxic	250 µM	Non-toxic	250 µM	250 µM	250 µM	250 µM	250 µM	250 µM	Non-toxic	250 µM	250 µM	Activity [17]: Non-toxic; IC80 (Trichosporon asahii [20]): 500 µM; IC80 (Trichosporon asahii [21]): 250 µM; IC80 [22]: 250 µM; IC80 (Candida albicans [23]): 250 µM; IC80 (Candida parapsilosis [24]): 250 µM; IC80 (Candida tropicalis [25]): 250 µM; Activity (L1210): Non-toxic; IC80 (Candida albicans [26]): 125 µM; Activity (CCRF-CEM [27]): Non-toxic
O=C1C=CC(=O)C1=Cc1ccc(F)cc1	15.6 µM	62.5 µM	15.6 µM	31.2 µM	> 125 µM	> 125 µM	31.2 µM	15.6 µM	Non-toxic	15.6 µM	Non-toxic	31.2 µM	31.2 µM	31.2 µM	31.2 µM	15.6 µM	15.6 µM	Non-toxic	31.2 µM	31.2 µM	IC50 (CCRF-CEM [28]): 1.6 µM; Activity [17]: Non-toxic; IC80 (Trichosporon asahii [20]): 62.5 µM; IC80 (Trichosporon asahii [21]): 31.2 µM; IC80 [22]: 15.6 µM; IC80 (Candida albicans [23]): 15.6 µM; IC80 (Candida parapsilosis [24]): 31.2 µM; IC80 (Candida tropicalis [25]): 15.6 µM; Activity (L1210): Non-toxic; IC80 (Candida albicans [26]): 7.81 µM
O=C1C=CC(=O)C1=Cc1ccc(Br)cc1	15.6 µM	31.2 µM	15.6 µM	15.6 µM	> 125 µM	> 125 µM	15.6 µM	15.6 µM	Non-toxic	15.6 µM	Non-toxic	15.6 µM	15.6 µM	31.2 µM	15.6 µM	15.6 µM	15.6 µM	Non-toxic	15.6 µM	15.6 µM	IC50 (CCRF-CEM [28]): 1.8 µM; IC80 (Trichosporon asahii [20]): 15.6 µM; IC50 [29]: 4.9 µM; IC80 (Trichosporon asahii [21]): 15.6 µM; IC80 [22]: 15.6 µM; IC80 (Candida albicans [23]): 15.6 µM; IC80 (Candida parapsilosis [24]): 15.6 µM; IC80 (Candida tropicalis [25]): 15.6 µM; Activity (L1210): Non-toxic; IC80 (Candida albicans [26]): 7.81 µM
O=C1C=CC(=O)C1=Cc1cccc(Br)c1	15.6 µM	125 µM	31.2 µM	31.2 µM	> 125 µM	> 125 µM	31.2 µM	31.2 µM	Non-toxic	31.2 µM	Non-toxic	31.2 µM	31.2 µM	125 µM	62.5 µM	31.2 µM	15.6 µM	Non-toxic	62.5 µM	31.2 µM	IC50 (CCRF-CEM [28]): 7.5 µM; Activity [17]: Non-toxic; IC80 (Trichosporon asahii [20]): 125 µM; IC80 (Trichosporon asahii [21]): 32.5 µM; IC80 [22]: 15.6 µM; IC80 (Candida albicans [23]): 15.6 µM; IC80 (Candida parapsilosis [24]): 62.5 µM; IC80 (Candida tropicalis [25]): 31.2 µM; Activity (L1210): Non-toxic; IC80 (Candida albicans [26]): 15.6 µM
O=C1C=CC(=O)C1=Cc1ccco1	7.81 µM	31.2 µM	15.6 µM	15.6 µM	250 µM	> 500 µM	15.6 µM	15.6 µM	Non-toxic	15.6 µM	Non-toxic	15.6 µM	15.6 µM	15.6 µM	15.6 µM	15.6 µM	7.81 µM	Non-toxic	15.6 µM	15.6 µM	IC50 (CCRF-CEM [28]): 2.5 µM; IC80 (Trichosporon asahii [20]): 31.2 µM; IC50 [29]: 7.3 µM; IC80 (Trichosporon asahii [21]): 15.6 µM; IC80 [22]: 7.81 µM; IC80 (Candida albicans [23]): 15.6 µM; IC80 (Candida parapsilosis [24]): 15.6 µM; IC80 (Candida tropicalis [25]): 15.6 µM; Activity (L1210): Non-toxic; IC80 (Candida albicans [26]): 7.81 µM
O=C1C=CC(=O)C1=Cc1cccs1	15.6 µM	15.6 µM	7.81 µM	15.6 µM	500 µM	> 500 µM	15.6 µM	15.6 µM	Non-toxic	7.81 µM	Non-toxic	15.6 µM	7.81 µM	15.6 µM	15.6 µM	15.6 µM	7.81 µM	Non-toxic	15.6 µM	7.81 µM	IC50 (CCRF-CEM [28]): 4.2 µM; Activity [17]: Non-toxic; IC80 (Trichosporon asahii [20]): 31.2 µM; IC80 (Trichosporon asahii [21]): 15.6 µM; IC80 [22]: 15.6 µM; IC80 (Candida albicans [23]): 15.6 µM; IC80 (Candida parapsilosis [24]): 15.6 µM; IC80 (Candida tropicalis [25]): 15.6 µM; Activity (L1210): Non-toxic; IC80 (Candida albicans [26]): 7.81 µM
